Test results published in ChEMBL document CHEMBL1201862, “PubChem BioAssay data set” (2004).
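Results reflect a 48-hour exposure of cells in 96-well plates to compound at five concentrations. GI50 is the concentration that inhibits growth by half.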 Active and inactive are the calls of the source. Rule as the data show it: active = GI50 up to about 1.1 µM and inactive = higher.

How the values were obtained:
Assay in all cases: NCI-60 cell line screen, 48 h
Malme-3M = system: Malme-3M
NCI/ADR-RES = system: NCI/ADR-RES
NCI-H226 = system: NCI-H226
CCRF-CEM = system: CCRF-CEM
HL-60 = system: HL-60
NCI-H522 = system: NCI-H522
Hs-578T = system: Hs-578T
SF-539 = system: SF-539
IGROV-1 = system: IGROV-1
SW-620 = system: SW-620
786-0 = system: 786-0
HT-29 = system: HT-29
SNB-19 = system: SNB-19
RXF 393 = system: RXF 393
MDA-N = system: MDA-N
RPMI-8226 = system: RPMI-8226
SF-295 = system: SF-295
HCT-15 = system: HCT-15
A549 = system: A549
OVCAR-8 = system: OVCAR-8
DU-145 = system: DU-145
COLO 205 = system: COLO 205
NCI-H23 = system: NCI-H23
SK-MEL-5 = system: SK-MEL-5
UACC-62 = system: UACC-62
T47D = system: T47D
OVCAR-3 = system: OVCAR-3
KM12 = system: KM12
MDA-MB-435 = system: MDA-MB-435
CAKI-1 = system: CAKI-1
K562 = system: K562
OVCAR-5 = system: OVCAR-5
BT-549 = system: BT-549
SR = system: SR
UACC-257 = system: UACC-257
SN12C = system: SN12C
M14 = system: M14
SK-OV-3 = system: SK-OV-3
LOX IMVI = system: LOX IMVI
SF-268 = system: SF-268
UO-31 = system: UO-31
MDA-MB-231 = system: MDA-MB-231
HCC 2998 = system: HCC 2998
MOLT-4 = system: MOLT-4
PC-3 = system: PC-3
TK-10 = system: TK-10
NCI-H460 = system: NCI-H460
MCF7 = system: MCF7
U-251 = system: U-251
HOP-92 = system: HOP-92
OVCAR-4 = system: OVCAR-4
ACHN = system: ACHN
HOP-62 = system: HOP-62
EKVX = system: EKVX
HCT-116 = system: HCT-116
SK-MEL-2 = system: SK-MEL-2
SNB-75 = system: SNB-75

Measured: GI50

CCCCC1Cc2cc(O)ccc2-c2nc3cc(O)ccc3n21.CCCCC1Cc2cc(O)ccc2-c2nc3ccc(O)cc3n21 (configuration not stated)
11 µM: HCT-15
inactive: Malme-3M 21.8 µM | NCI/ADR-RES 18.6 µM | NCI-H226 18.4 µM | CCRF-CEM 19.2 µM | HL-60 19.1 µM | NCI-H522 11.1 µM | Hs-578T 16.3 µM | SF-539 14.8 µM | IGROV-1 13 µM | SW-620 16.9 µM | 786-0 19 µM | HT-29 16.3 µM | SNB-19 11 µM | RXF 393 19.1 µM | MDA-N 14.3 µM | RPMI-8226 12.4 µM | SF-295 15.2 µM | A549 16.3 µM | OVCAR-8 21.4 µM | DU-145 28.5 µM | COLO 205 15.7 µM | NCI-H23 21.9 µM | SK-MEL-5 13.5 µM | UACC-62 12.8 µM | T47D 19.9 µM | OVCAR-3 21.7 µM | KM12 19.4 µM | MDA-MB-435 11.9 µM | CAKI-1 23.7 µM | K562 10.7 µM | OVCAR-5 16.6 µM | BT-549 19.2 µM | SR 12.6 µM | UACC-257 15.8 µM | SN12C 16.5 µM | M14 15.3 µM | SK-OV-3 18.5 µM | LOX IMVI 16.8 µM | SF-268 12 µM | UO-31 13.1 µM | MDA-MB-231 13.6 µM | HCC 2998 14.3 µM | MOLT-4 13.6 µM | PC-3 12.6 µM | TK-10 18.6 µM | NCI-H460 14.8 µM | MCF7 19.2 µM | U-251 14.4 µM | HOP-92 4.28 µM | OVCAR-4 7.45 µM | ACHN 13.9 µM | HOP-62 14.4 µM | EKVX 17.2 µM | HCT-116 14 µM

COC(=O)Cc1cc(O)c(C/C=C(\C)CC/C=C(\C)C(O)C(=O)C=C(C)C)cc1O (configuration not stated)
inactive: Malme-3M 17.3 µM | NCI/ADR-RES 22.5 µM | NCI-H226 26.3 µM | CCRF-CEM 2.93 µM | HL-60 2.76 µM | NCI-H522 21.1 µM | Hs-578T 41 µM | SF-539 20.3 µM | IGROV-1 23.3 µM | SW-620 31.3 µM | 786-0 38.6 µM | HT-29 27.4 µM | SNB-19 32 µM | RXF 393 14.5 µM | MDA-N 35.5 µM | RPMI-8226 26.7 µM | SF-295 24.2 µM | A549 25.6 µM | OVCAR-8 23.2 µM | DU-145 45.4 µM | COLO 205 24.8 µM | NCI-H23 39.4 µM | SK-MEL-5 17.1 µM | UACC-62 19.9 µM | T47D 16.5 µM | OVCAR-3 19.4 µM | KM12 20.7 µM | MDA-MB-435 20.6 µM | K562 15.6 µM | OVCAR-5 33.7 µM | BT-549 25.6 µM | SR 15.6 µM | UACC-257 30.7 µM | SN12C 22.4 µM | M14 26.3 µM | SK-OV-3 29.7 µM | SF-268 19.7 µM | UO-31 21.6 µM | MDA-MB-231 34.7 µM | MOLT-4 14.5 µM | PC-3 21.9 µM | NCI-H460 20.6 µM | MCF7 32.1 µM | U-251 18.7 µM | SK-MEL-2 24.6 µM | HOP-92 20.4 µM | OVCAR-4 40.4 µM | SNB-75 18.2 µM | ACHN 24.9 µM | HOP-62 19.6 µM | EKVX 23.6 µM | HCT-116 17.3 µM
